Measured values from the supplement of paper PMC12420376.

Legend:
KURAMOCHI = assay: drug sensitivity score (DSS2) on cancer cell count; higher = more sensitive; extreme values may be limits of the assay; details: 72 h
In short: (§1)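 Ovarian cancer cells were grown alone or in 1:1 direct co-culture with lung or skin fibroblasts. They were plated onto 384-well plates pre-spotted acoustically with 528 approved and investigational compounds at 5 concentrations, then treated for 72 h. Cells were fixed, immunostained for CK8/18 with Hoechst, and imaged at 10× (4 fields) to count cancer cells. A drug sensitivity score (DSS2) was derived in Breeze from 4-parameter logistic fits, with screen quality checked by Z'.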

OVCAR8 = assay: as above; details: 72 h
In short: as §1

[1] = co-cultured fibroblast: BJHTERT
[2] = co-cultured fibroblast: none (monoculture)

Structure (SMILES)	drug sensitivity score (KURAMOCHI; [1]) [DSS]	drug sensitivity score (KURAMOCHI; co-cultured fibroblast: WI38) [DSS]	drug sensitivity score (KURAMOCHI; [2]) [DSS]	drug sensitivity score (OVCAR8; [1]) [DSS]	drug sensitivity score (OVCAR8; co-cultured fibroblast: WI38) [DSS]	drug sensitivity score (OVCAR8; [2]) [DSS]
O=c1[nH]c(=O)n([C@H]2C[C@H](O)[C@@H](CO)O2)cc1C(F)(F)F [Trifluridine]	5.4	9.2	7.4	5.2	2.7	9
O=C(CCCCCCC(=O)Nc1ccc([C@H]2O[C@@H](CSc3nc(-c4ccccc4)c(-c4ccccc4)o3)C[C@@H](c3ccc(CO)cc3)O2)cc1)NO [Tubacin]	1.1	6.7	7	5	1.5	6.2
CN1CCc2c(c3ccccc3n2Cc2ccc(C(=O)NO)cc2)C1 [Tubastatin A]	0	3.3	4.6	0	4.3	5.2
Cc1cc(Nc2ncnc3ccc(NC4=NC(C)(C)CO4)cc23)ccc1Oc1ccn2ncnc2c1 [Tucatinib]	2.9	0	2.5	0	0	0
Nc1cc(F)ccc1NC(=O)c1ccc(CNC(=O)/C=C/c2cccnc2)cc1 [Tucidinostat]	7.6	11.2	9.7	8	4.4	11.8
CN[C@@H]1C[C@H]2O[C@@](C)([C@@H]1OC)n1c3ccccc3c3c4c(c5c6ccccc6n2c5c31)C(=O)N[C@H]4O [UCN-01]	17	17.3	22.7	19.6	14.3	17.7
COC(=O)c1ccc2c(c1)[nH]c1ncnc(NCCCN3CCCCC3)c12 [UM729]	1.1	0	4.1	6.9	1.1	3.5
COc1cc2c(NC3CCN(C(C)C)CC3)nc(C3CCCCC3)nc2cc1OCCCN1CCCC1 [UNC0638]	4.4	1.8	0	7.1	0	0.1
COc1cc2c(NC3CCN(C(C)C)CC3)nc(N3CCC(F)(F)CC3)nc2cc1OCCCN1CCCC1 [UNC0642]	1.5	0.7	0.1	8	0	2.2
O=C(c1ccc(C(=O)N2CCC(N3CCCC3)CC2)c(Nc2ccccc2)c1)N1CCC(N2CCCC2)CC1 [UNC1215]	0	0	0	0	0	0
CCCCNc1ncc(C(=O)NCc2ccc(-n3ccnc3)cc2)c(NC2CCC(O)CC2)n1 (stereo not given) [UNC2881]	2.4	3	0.4	0.2	1.1	0
NC(=O)c1cccc(-c2cccc(OC(=O)NC3CCCCC3)c2)c1 [URB597]	0	0	0	0	0	0
CC(C)Nc1cc(-c2c[nH]c(C(=O)N[C@H](CO)c3cccc(Cl)c3)c2)c(Cl)cn1 [Ulixertinib]	9.7	9.6	12.2	8.8	13.9	11
Cn1ncc(Cl)c1-c1cc(C(=O)N[C@H](CN)Cc2ccc(F)c(F)c2)oc1Cl [Uprosertib]	0.5	4.4	2	0.6	0	0.1
CS(=O)(=O)c1ccc(-c2cnc(N)c(C(=O)Nc3ccccc3)n2)cc1 [VE-821]	0	0	0	3.1	0	0
O=C(O)CC1CC(c2ccccc2)=NO1 (stereo not given) [VGX-1027]	0	0	0	0.3	0	0
C=CC(=O)N1CC/C(=C\c2ccc(F)c([N+](=O)[O-])c2)C(=O)/C(=C/c2ccc(F)c([N+](=O)[O-])c2)C1 [VLX1570]	27.4	24.7	29	24.8	31.1	31.7
CNC(=O)c1ccccc1Nc1cc(Nc2ccc(N3CCOCC3)cc2OC)ncc1C(F)(F)F [VS-4718]	9	7.9	14.2	6.7	3.5	8.5
CCCC(CCC)C(=O)O [Valproic acid]	0	0	0	0	0	0
CCCCC(=O)OCC(=O)[C@]1(O)Cc2c(O)c3c(c(O)c2[C@@H](O[C@H]2C[C@H](NC(=O)C(F)(F)F)[C@H](O)[C@H](C)O2)C1)C(=O)c1c(OC)cccc1C3=O [Valrubicin]	19.7	17.1	24.1	17.6	15.3	18.4

Structure (SMILES)	drug sensitivity score (KURAMOCHI; [1]) [DSS]	drug sensitivity score (KURAMOCHI; co-cultured fibroblast: WI38) [DSS]	drug sensitivity score (KURAMOCHI; [2]) [DSS]	drug sensitivity score (OVCAR8; [1]) [DSS]	drug sensitivity score (OVCAR8; co-cultured fibroblast: WI38) [DSS]	drug sensitivity score (OVCAR8; [2]) [DSS]
COc1cc2/c(=N/c3ccc(Br)cc3F)nc[nH]c2cc1OCC1CCN(C)CC1 [Vandetanib]	0	2.6	10.6	0	0	2.1
CCc1c(C(=O)C(N)=O)c2c(OCC(=O)O)cccc2n1Cc1ccccc1 [Varespladib]	0	0	0	0	0	3.4
C[C@@H]1COC(Nc2ccc3ncnc(Nc4ccc(OCc5nccs5)c(Cl)c4)c3c2)=N1 [Varlitinib]	1.5	2.1	0	0	2	1.4
Clc1ccc(Nc2nnc(Cc3ccncc3)c3ccccc23)cc1 [Vatalanib]	0	0.7	0	0.2	0	0
C[C@]1(c2nc3c(C(N)=O)cccc3[nH]2)CCCN1 [Veliparib]	0.4	0	0	5	3.1	0.5
CCCS(=O)(=O)Nc1ccc(F)c(C(=O)c2c[nH]c3ncc(-c4ccc(Cl)cc4)cc23)c1F [Vemurafenib]	0	0	0.8	0	1.1	1.3
CC1(C)CCC(CN2CCN(c3ccc(C(=O)NS(=O)(=O)c4ccc(NCC5CCOCC5)c([N+](=O)[O-])c4)c(Oc4cnc5[nH]ccc5c4)c3)CC2)=C(c2ccc(Cl)cc2)C1 [Venetoclax]	0	0	0	0	0	2.3
O=C(/C=C\n1cnc(-c2cc(C(F)(F)F)cc(C(F)(F)F)c2)n1)NNc1ccccn1 [Verdinexor]	8.4	9.1	16.7	10.2	7.1	16.6
CCCCOc1nc(N)c2c(n1)N(Cc1cccc(CN3CCCC3)c1)CC(=O)N2 [Vesatolimod]	2.9	0	0	0.4	0	0
COc1cccc(-c2ccc(NC(=O)C3=C(C(=O)O)CCC3)c(F)c2)c1 [Vidofludimus]	1.5	0.4	1.9	0	1.6	2
CC[C@]1(O)C[C@@H]2CN(CCc3c([nH]c4ccccc34)[C@@](C(=O)OC)(c3cc4c(cc3OC)N(C)[C@H]3[C@@](O)(C(=O)OC)[C@H](OC(C)=O)[C@]5(CC)C=CCN6CC[C@]43[C@@H]65)C2)C1 [Vinblastine]	4.9	4.2	20.8	18.9	5.2	15.7
CC[C@]1(O)C[C@H]2CN(CCc3c([nH]c4ccccc34)[C@@](C(=O)OC)(c3cc4c(cc3OC)N(C=O)[C@H]3[C@@](O)(C(=O)OC)[C@H](OC(C)=O)[C@]5(CC)C=CCN6CC[C@]43[C@@H]65)C2)C1 [Vincristine]	7.5	5	23.4	11.5	9.3	11.9
CC[C@]12C=CCN3CC[C@@]4(c5cc([C@@]6(C(=O)OC)C[C@@H]7C[C@@H](C(C)(F)F)CN(Cc8c6[nH]c6ccccc86)C7)c(OC)cc5N(C)[C@H]4[C@@](O)(C(=O)OC)[C@@H]1OC(C)=O)[C@@H]32 [Vinflunine]	3.1	7	7.9	6.9	3.7	3.9
CCC1=C[C@@H]2CN(C1)Cc1c([nH]c3ccccc13)[C@@](C(=O)OC)(c1cc3c(cc1OC)N(C)[C@H]1[C@@](O)(C(=O)OC)[C@H](OC(C)=O)[C@]4(CC)C=CCN5CC[C@]31[C@@H]54)C2 [Vinorelbine]	29.3	25.7	25.6	38.8	33	29.3
CS(=O)(=O)c1ccc(C(=O)Nc2ccc(Cl)c(-c3ccccn3)c2)c(Cl)c1 [Vismodegib]	0	0	0	0	6.8	0
CNC(=O)c1cccc(-c2ccc3c(N4CCOC[C@@H]4C)nc(N4CCOC[C@@H]4C)nc3n2)c1 [Vistusertib]	10.6	8.3	7.5	13.1	7.6	16.1
CC[C@@H]1C(=O)N(C)c2cnc(Nc3ccc(C(=O)N[C@H]4CC[C@H](N5CCN(CC6CC6)CC5)CC4)cc3OC)nc2N1C(C)C [Volasertib]	16.4	17.9	21.4	26.5	21.5	24.7
O=C(CCCCCCC(=O)Nc1ccccc1)NO [Vorinostat]	9.5	9.7	5.5	17.1	22.8	9.4
Oc1nc(-c2ccc(C(F)(F)F)cc2)nc2c1CSCC2 [XAV-939]	1.1	0	0.5	0.6	0.1	0.3
FC(F)c1nc2ccccc2n1-c1nc(N2CCOCC2)nc(N2CCOCC2)n1 [ZSTK474]	15	12.7	10.9	5.3	0	9.8
